Assay [1] has as its target human JAK1 (Homo sapiens, UniProt P23458). The assay can be described thus: In vitro JAK kinase assay (Example A), JAK1. In kind it is biochemical. The following applies: 1 mM ATP. The text has this: In some embodiments, the JAK1 pathway inhibitor is a compound of Table 2, or a pharmaceutically acceptable salt thereof.
Assay [2] concerns the target human JAK2 (Homo sapiens (Human), UniProt O60674). The assay can be described thus: In vitro JAK kinase assay (Example A), JAK2. In kind it is biochemical. The following applies: JAK2/JAK1 IC50 ratio, 1 mM ATP. The method, then: The compounds in Table 2 were tested in this assay and shown to have the IC50 values in Table 2.

We go through 21 compounds from patent US11406640B2, “JAK1 pathway inhibitors for the treatment of chronic lung allograft dysfunction” (Incyte Corporation, priority 2019, dated 2022).

human JAK2, sequence (O60674 828-1132): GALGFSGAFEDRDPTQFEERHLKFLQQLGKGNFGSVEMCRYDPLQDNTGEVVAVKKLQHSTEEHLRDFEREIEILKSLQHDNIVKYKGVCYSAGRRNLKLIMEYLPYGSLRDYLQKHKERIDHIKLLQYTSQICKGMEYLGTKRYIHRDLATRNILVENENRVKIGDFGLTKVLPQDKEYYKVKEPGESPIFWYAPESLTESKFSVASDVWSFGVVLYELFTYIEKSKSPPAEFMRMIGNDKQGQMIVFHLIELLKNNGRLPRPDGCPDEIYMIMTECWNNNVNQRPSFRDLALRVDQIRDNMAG

What is called IC50 is the concentration needed to halve the response being measured. Higher therefore signals a need for much substance. `N#CCC(C1CCN(c2cccc(Cl)n2)C1)n1cc(-c2ncnc3[nH]ccc23)cn1` (single isomer, unassigned) [Compound 6, 3-[1-(6-chloropyridin-2-yl)pyrrolidin-3-yl]-3-[4-(7H-pyrrolo[2,3-d]pyrimidin-4-yl)-1H-pyrazol-1-yl]propanenitrile] came in with an IC50 in assay [1] of less than 10 nM. In assay [2], the JAK2/JAK1 was more than 10.
For `N#CCC1(n2cc(-c3ncnc4[nH]ccc34)cn2)CN(C2CCN(C(=O)Nc3ccc(F)cc3C(F)(F)F)CC2)C1` [Compound 2, 4-{3-(Cyanomethyl)-3-[4-(7H-pyrrolo[2,3-d]pyrimidin-4-yl)-1H-pyrazol-1-yl]azetidin-1-yl}-N-[4-fluoro-2-(trifluoromethyl)phenyl] piperidine-1-carboxamide], in that order: less than 10 nM and more than 10.
For `N#CCC1(n2cc(-c3ncnc4[nH]ccc34)cn2)CN(C2CCN(C(=O)c3ccnc(C(F)(F)F)n3)CC2)C1` [Compound 3, [3-[4-(7H-pyrrolo[2,3-d]pyrimidin-4-yl)-1H-pyrazol-1-yl]-1-(1-{[2-(trifluoromethyl)pyrimidin-4-yl]carbonyl}piperidin-4-yl)azetidin-3-yl]acetonitrile], in that order: less than 10 nM and more than 10.
For `C[C@@H](O)c1nc2cnc3ccsc3c2n1[C@H]1CC[C@H](CC#N)OC1` [Compound 5, ((2R,5S)-5-{2-[(1R)-1-hydroxyethyl]-1H-imidazo[4,5-d]thieno[3,2-b]pyridin-1-yl}tetrahydro-2H-pyran-2-yl)acetonitrile], in that order: less than 100 nM and more than 10.
With `N#CCC(C1CCN(c2nc3cccnc3o2)C1)n1cc(-c2ncnc3[nH]ccc23)cn1` (stereo not drawn) [Compound 7, 3-(1-[1,3]oxazolo[5,4-b]pyridin-2-ylpyrrolidin-3-yl)-3-[4-(7H-pyrrolo[2,3-d]pyrimidin-4-yl)-1H-pyrazol-1-yl]propanenitrile], the IC50 in assay [1] was less than 10 nM. Also, the JAK2/JAK1 in assay [2] was more than 10.
For `N#CCC(CN1CCN(C(=O)c2ccc(C#N)cc2F)CC1)n1cc(-c2ncnc3[nH]ccc23)cn1` (stereo not drawn) [Compound 8, 4-[(4-{3-cyano-2-[4-(7H-pyrrolo[2,3-d]pyrimidin-4-yl)-1H-pyrazol-1-yl]propyl}piperazin-1-yl)carbonyl]-3-fluorobenzonitrile], in that order: less than 10 nM and more than 10.
The corresponding values for `N#CCC(CN1CCN(C(=O)c2ccc(C#N)cc2F)CC1)n1ccc(-c2ncnc3[nH]ccc23)c1` (stereo not drawn) [Compound 9, 4-[(4-{3-cyano-2-[3-(7H-pyrrolo[2,3-d]pyrimidin-4-yl)-1H-pyrrol-1-yl]propyl}piperazin-1-yl)carbonyl]-3-fluorobenzonitrile] are less than 10 nM and more than 10.
For `N#CC[C@]1(n2cc(-c3ncnc4[nH]ccc34)cn2)C[C@H](N2CCN(C(=O)c3ccnc(C(F)(F)F)n3)CC2)C1` [Compound 10, [trans-1-[4-(7H-pyrrolo[2,3-d]pyrimidin-4-yl)-1H-pyrazol-1-yl]-3-(4-{[2-(trifluoromethyl)pyrimidin-4-yl]carbonyl}piperazin-1-yl)cyclobutyl]acetonitrile], in that order: less than 10 nM and more than 10.
Compound `N#CC[C@]1(n2cc(-c3ncnc4[nH]ccc34)cn2)C[C@H](N2CCC(Oc3cc(CN4CC(O)C4)cc(C(F)(F)F)n3)CC2)C1` [Compound 11, {trans-3-(4-{[4-[(3-hydroxyazetidin-1-yl)methyl]-6-(trifluoromethyl)pyridin-2-yl]oxy}piperidin-1-yl)-1-[4-(7H-pyrrolo[2,3-d]pyrimidin-4-yl)-1H-pyrazol-1-yl]cyclobutyl}acetonitrile] displayed an IC50 in assay [1] of less than 10 nM. For the same compound, in assay [2], the JAK2/JAK1 is given as more than 10.
For `N#CC[C@]1(n2cc(-c3ncnc4[nH]ccc34)cn2)C[C@H](N2CCC(Oc3cc(CN4CCC[C@H]4CO)cc(C(F)(F)F)n3)CC2)C1` [Compound 12, {trans-3-(4-{[4-{[(2S)-2-(hydroxymethyl)pyrrolidin-1-yl]methyl}-6-(trifluoromethyl)pyridin-2-yl]oxy}piperidin-1-yl)-1-[4-(7H-pyrrolo[2,3-d]pyrimidin-4-yl)-1H-pyrazol-1-yl]cyclobutyl}acetonitrile], in that order: less than 10 nM and more than 10.
With `N#CC[C@]1(n2cc(-c3ncnc4[nH]ccc34)cn2)C[C@H](N2CCC(Oc3cc(CN4CCC[C@@H]4CO)cc(C(F)(F)F)n3)CC2)C1` [Compound 13, {trans-3-(4-{[4-{[(2R)-2-(hydroxymethyl)pyrrolidin-1-yl]methyl}-6-(trifluoromethyl)pyridin-2-yl]oxy}piperidin-1-yl)-1-[4-(7H-pyrrolo[2,3-d]pyrimidin-4-yl)-1H-pyrazol-1-yl]cyclobutyl}acetonitrile], the IC50 in assay [1] was less than 10 nM. In assay [2], the JAK2/JAK1 is listed as more than 10.
The compound `C[C@H](NC(=O)c1cc(F)c(N2CC(CC#N)(n3cc(-c4ncnc5[nH]ccc45)cn3)C2)cc1F)C(F)(F)F` [Compound 16, 4-{3-(cyanomethyl)-3-[4-(7H-pyrrolo[2,3-d]pyrimidin-4-yl)-1H-pyrazol-1-yl]azetidin-1-yl}-2,5-difluoro-N-[(1S)-2,2,2-trifluoro-1-methylethyl]benzamide] yielded an IC50 in assay [1] of less than 10 nM. Also, in assay [2], the JAK2/JAK1 is on record as more than 10.
In assay [1], `N#CCC1(n2cc(-c3ncnc4[nH]ccc34)cn2)CN([C@H]2CC[C@@H](Oc3cc(CCO)nc(C(F)(F)F)n3)CC2)C1` [Compound 18, {1-(cis-4-{[6-(2-hydroxyethyl)-2-(trifluoromethyl)pyrimidin-4-yl]oxy}cyclohexyl)-3-[4-(7H-pyrrolo[2,3-d]pyrimidin-4-yl)-1H-pyrazol-1-yl]azetidin-3-yl}acetonitrile] registered an IC50 of less than 10 nM. Moreover, the JAK2/JAK1 in assay [2] is recorded as more than 10.
`CCNCc1cc(O[C@H]2CC[C@@H](N3CC(CC#N)(n4cc(-c5ncnc6[nH]ccc56)cn4)C3)CC2)nc(C(F)(F)F)c1` [Compound 19, {1-(cis-4-{[4-[(ethylamino)methyl]-6-(trifluoromethyl)pyridin-2-yl]oxy}cyclohexyl)-3-[4-(7H-pyrrolo[2,3-d]pyrimidin-4-yl)-1H-pyrazol-1-yl]azetidin-3-yl}acetonitrile] yielded an IC50 in assay [1] of less than 10 nM. Also, the JAK2/JAK1 in assay [2] is reported as more than 10.
`CC(C)(O)c1cc(O[C@H]2CC[C@@H](N3CC(CC#N)(n4cc(-c5ncnc6[nH]ccc56)cn4)C3)CC2)nc(C(F)(F)F)c1` [Compound 20, {1-(cis-4-{[4-(1-hydroxy-1-methylethyl)-6-(trifluoromethyl)pyridin-2-yl]oxy}cyclohexyl)-3-[4-(7H-pyrrolo[2,3-d]pyrimidin-4-yl)-1H-pyrazol-1-yl]azetidin-3-yl}acetonitrile] had an IC50 in assay [1] of less than 10 nM. The JAK2/JAK1 in assay [2] is reported as more than 10.
The corresponding values for `N#CCC1(n2cc(-c3ncnc4[nH]ccc34)cn2)CN([C@H]2CC[C@@H](Oc3cc(CN4CC[C@@H](O)C4)cc(C(F)(F)F)n3)CC2)C1` [Compound 21, {1-(cis-4-{[4-{[(3R)-3-hydroxypyrrolidin-1-yl]methyl}-6-(trifluoromethyl)pyridin-2-yl]oxy}cyclohexyl)-3-[4-(7H-pyrrolo[2,3-d]pyrimidin-4-yl)-1H-pyrazol-1-yl]azetidin-3-yl}acetonitrile] are less than 10 nM and more than 10.
For the compound `N#CCC1(n2cc(-c3ncnc4[nH]ccc34)cn2)CN([C@H]2CC[C@@H](Oc3cc(CN4CC[C@H](O)C4)cc(C(F)(F)F)n3)CC2)C1` [Compound 22, {1-(cis-4-{[4-{[(3S)-3-hydroxypyrrolidin-1-yl]methyl}-6-(trifluoromethyl)pyridin-2-yl]oxy}cyclohexyl)-3-[4-(7H-pyrrolo[2,3-d]pyrimidin-4-yl)-1H-pyrazol-1-yl]azetidin-3-yl}acetonitrile], in assay [1], the IC50 was less than 10 nM. For the same compound, in assay [2], the JAK2/JAK1 was more than 10.
Consider `C[C@@H](CO)NCc1cc(OC2CCN([C@H]3C[C@](CC#N)(n4cc(-c5ncnc6[nH]ccc56)cn4)C3)CC2)nc(C(F)(F)F)c1` [Compound 23, {trans-3-(4-{[4-({[(1S)-2-hydroxy-1-methylethyl]amino}methyl)-6-(trifluoromethyl)pyridin-2-yl]oxy}piperidin-1-yl)-1-[4-(7H-pyrrolo[2,3-d]pyrimidin-4-yl)-1H-pyrazol-1-yl]cyclobutyl}acetonitrile], for which, in assay [1], the IC50 was less than 10 nM. For the same compound, the JAK2/JAK1 in assay [2] is more than 10.
For `C[C@@H](O)CNCc1cc(OC2CCN([C@H]3C[C@](CC#N)(n4cc(-c5ncnc6[nH]ccc56)cn4)C3)CC2)nc(C(F)(F)F)c1` [Compound 24, {trans-3-(4-{[4-({[(2R)-2-hydroxypropyl]amino}methyl)-6-(trifluoromethyl)pyridin-2-yl]oxy}piperidin-1-yl)-1-[4-(7H-pyrrolo[2,3-d]pyrimidin-4-yl)-1H-pyrazol-1-yl]cyclobutyl}acetonitrile], in assay [1], the IC50 was less than 10 nM. Further, in assay [2], the JAK2/JAK1 is recorded as more than 10.
Turning to `C[C@H](O)CNCc1cc(OC2CCN([C@H]3C[C@](CC#N)(n4cc(-c5ncnc6[nH]ccc56)cn4)C3)CC2)nc(C(F)(F)F)c1` [Compound 25, {trans-3-(4-{[4-({[(2S)-2-hydroxypropyl]amino}methyl)-6-(trifluoromethyl)pyridin-2-yl]oxy}piperidin-1-yl)-1-[4-(7H-pyrrolo[2,3-d]pyrimidin-4-yl)-1H-pyrazol-1-yl]cyclobutyl}acetonitrile], the IC50 in assay [1] was less than 10 nM. In assay [2], the JAK2/JAK1 was more than 10.
The compound `N#CC[C@]1(n2cc(-c3ncnc4[nH]ccc34)cn2)C[C@H](N2CCC(Oc3cc(CCO)cc(C(F)(F)F)n3)CC2)C1` [Compound 26, {trans-3-(4-{[4-(2-hydroxyethyl)-6-(trifluoromethyl)pyridin-2-yl]oxy}piperidin-1-yl)-1-[4-(7H-pyrrolo[2,3-d]pyrimidin-4-yl)-1H-pyrazol-1-yl]cyclobutyl}acetonitrile] showed an IC50 in assay [1] of less than 10 nM. Further, in assay [2], the JAK2/JAK1 is more than 10.
